We go through 44 compounds from ChEMBL document CHEMBL3045086, “Two-dimensional quantitative structureactivity relationship study on polyphenols as inhibitors of -glucosidase” (Med Chem Res, 2012).

Structures are written as SMILES.

This experiment concerns the target Alpha-glucosidase MAL62 (Saccharomyces cerevisiae) (UniProt P07265). Nature of the experiment: Inhibition of baker's yeast alpha-glucosidase using p-nitrophenyl-alpha-D-glucopyranoside as substrate by spectrophotometry.

Chain of Alpha-glucosidase MAL62 (Saccharomyces cerevisiae) (P07265 whole entry): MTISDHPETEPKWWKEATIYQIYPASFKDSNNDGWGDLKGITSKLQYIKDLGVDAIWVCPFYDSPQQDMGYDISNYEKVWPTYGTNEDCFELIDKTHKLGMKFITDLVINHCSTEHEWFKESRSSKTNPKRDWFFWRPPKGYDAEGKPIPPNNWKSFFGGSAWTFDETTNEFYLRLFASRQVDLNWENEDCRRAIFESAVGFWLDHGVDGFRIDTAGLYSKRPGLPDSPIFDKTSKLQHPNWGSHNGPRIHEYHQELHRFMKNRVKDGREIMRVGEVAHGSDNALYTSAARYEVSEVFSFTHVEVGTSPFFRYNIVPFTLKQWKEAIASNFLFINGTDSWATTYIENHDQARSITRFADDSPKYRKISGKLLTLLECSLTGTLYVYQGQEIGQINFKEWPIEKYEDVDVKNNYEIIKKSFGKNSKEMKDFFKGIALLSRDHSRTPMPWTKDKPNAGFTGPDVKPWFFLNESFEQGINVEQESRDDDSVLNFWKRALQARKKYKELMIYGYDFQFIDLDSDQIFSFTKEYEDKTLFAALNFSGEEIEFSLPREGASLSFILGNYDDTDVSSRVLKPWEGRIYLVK

For `O=c1cc(-c2ccc(O)c(O)c2)oc2cc(O)cc(O)c12`, the logIC50 stood at 1.32. `OC[C@H]1OC(OC2=C(c3ccc(O)c(O)c3)Oc3cc(O)cc(O)c3C2)[C@@H](O)[C@@H](O)[C@@H]1O` (some centres undefined): the logIC50 turned out to be 1.3.

Take `O=c1c(O)c(-c2ccc(O)c(O)c2)oc2cc(O)cc(O)c12`: the logIC50 amounted to 0.845.

Take `Oc1cc(O)c2cc(O)c(-c3ccc(O)c(O)c3)[o+]c2c1`: the logIC50 came to 0.602. In the case of `O=C(OC1Cc2c(O)cc(O)cc2OC1c1cc(O)c(O)c(O)c1)c1cc(O)c(O)c(O)c1` (centres undefined) it was 0.301; in that of `O=C(O)c1cc(O)c(O)c(O)c1`, 0.716. For `C=CC(C)(C)c1c(O)cc(O)c2c(=O)c(O)c(-c3cc(O)c(O)c(CC=C(C)C)c3)oc12` the value was 0.556; for `O=c1c(O)c(-c2ccc(O)cc2)oc2cc(O)cc(O)c12`, 1.08. `C=CC(C)(C)c1c(O)cc(O)c2c(=O)c3oc4c(CC=C(C)C)c(O)c(OCC=C(C)C)cc4c3oc12` yielded a logIC50 of 1.52. The compound `C=C(C)C(CC=C(C)C)Cc1c(O)cc(O)c2c1OC(c1ccccc1O)CC2=O` (centres undefined) displayed a logIC50 of 1.65. For `C=C(C)C(CC=C(C)C)Cc1c(O)cc(O)c2c1OC(c1ccc(O)cc1O)CC2=O` (centres undefined) the value was 1.57; for `O=C1C[C@@H](c2ccc(O)cc2)Oc2cc(O)cc(O)c21`, 1.88; for `CC(C)=CCc1cc(-c2oc3cc(O)c(CC=C(C)C)c(O)c3c(=O)c2O)cc(O)c1O`, 0.322. `CC(C)=CCc1cc(C(=O)/C=C/c2ccc(O)c(O)c2)c(O)cc1O`: the logIC50 turned out to be 0.724. For `O=c1c(O)c(-c2ccc(O)c(O)c2)oc2cc(O)ccc12` the value was 1.11; for `O=c1c(-c2ccc(O)cc2)coc2cc(O)ccc12`, 1.15; for `O=C(O)/C=C/c1ccc(O)cc1`, 2.3. For `CC(C)=CCc1cc(C2CCc3ccc(O)cc3O2)c(CC=C(C)C)c(O)c1O` (centres undefined) the value was 1.08. In the case of `O=C(O)/C=C/c1ccc(Cl)cc1` it was 2.59; in that of `CC(C)=CCc1cc(C2CCc3ccc(O)cc3O2)cc(O)c1O` (centres undefined), 1.88. `O=c1c(O)c(-c2ccc(O)cc2O)oc2cc(O)cc(O)c12` gave a logIC50 of 1.6. For `O=C(O)/C=C/c1ccc(F)cc1` the value was 2.43. The compound `COc1ccc(/C=C/C(=O)O)cc1` returned a logIC50 of 1.6. In the case of `O=C(O)/C=C/c1cccc(O)c1`, the logIC50 is 3.1. With `COc1cc(O)c(C(C)=C(C)C)c2c1C(=O)CC(c1ccc(O)cc1)O2` (centres undefined), the logIC50 worked out at 2.55.

For `O=c1c(O)c(-c2cc(O)c(O)c(O)c2)oc2cc(O)cc(O)c12`, the logIC50 was found to be 0.699. Take `CC(C)=CCc1c(C2CCc3ccc(O)cc3O2)cc2c(c1O)OC(C)(C)C=C2` (centres undefined): the logIC50 is 1.42. `CC1(C)C=Cc2cc(C(=O)/C=C/c3ccc(O)cc3)c(O)cc2O1` registered a logIC50 of 1.09. For `COC(=O)c1cc(O)c(O)c(O)c1` the value was 1.06; for `O=c1c(-c2ccc(O)cc2)coc2cc(O)cc(O)c12`, 0.845; for `C=C(C)C(CC=C(C)C)Cc1c(O)cc(OC)c2c1OC(c1ccc(OC)cc1O)CC2=O` (centres undefined), 2.19. In the case of `CC1(C)C=Cc2cc(C(=O)/C=C/c3ccc(O)c(O)c3)c(O)cc2O1`, the logIC50 was 1.28. In the case of `COc1cccc(/C=C/C(=O)O)c1` it was 2.76; in that of `C=CC(C)(C)c1cc2c(cc1O)OC(c1cc(O)c(O)c(CC=C(C)C)c1C/C=C\C)CC2` (centres undefined), 1.02. For `CCOC(=O)/C=C/c1ccc(OC)cc1`, the logIC50 is 1.7. On to `Oc1cc(O)c2c(c1)OC(c1ccc(O)c(O)c1)C(O)C2` (centres undefined), for which the logIC50 was 2.11. For `OC[C@H]1OC(OC2=C(c3cc(O)c(O)c(O)c3)Oc3cc(O)cc(O)c3C2)[C@@H](O)[C@@H](O)[C@@H]1O` (some centres undefined) the value was 1.48; for `Oc1cc(O)c2c(c1)OC(c1cc(O)c(O)c(O)c1)C(O)C2` (centres undefined), 1.88. In the case of `C=CC(C)(C)c1c(O)cc(O)c2c(=O)c3oc4c5c(c(OCC=C(C)C)cc4c3oc12)OC(C)(C)C=C5` it was 1.44. For `C=C(C)C(CC=C(C)C)Cc1c(O)cc(OC)c2c1OC(c1ccc(O)cc1O)CC2=O` (centres undefined) the value was 1.83; for `COc1ccc([C@@H]2CC(=O)c3c(O)cc(O)cc3O2)cc1O`, 2.18; for `C=C(C)C(CCC(C)(C)O)Cc1c(O)cc(OC)c2c1OC(c1ccc(O)cc1O)CC2=O` (centres undefined), 2.25. `O=C(O)/C=C/c1ccc(Oc2ccccc2)cc1` had a logIC50 of 2.64. With `CC(C)=CCc1cc(C(=O)/C=C/c2ccc(O)cc2)c(O)cc1O`, the logIC50 amounted to 1.04.
